Assay results taken from patent publication US8927550B2, “Heterocyclic compounds as CCR1 receptor antagonists” (Boehringer Ingelheim International GmbH, priority 2009, dated 2015).

What follows are compounds tested against T1, CCR1 (Homo sapiens, UniProt P32246) (assay: Calcium flux in CCR1 transfected cells, Method A (Fluo-4 NW dye, FLIPR TETRA), MIP-1 alpha at EC80). Conditions: cells stably expressing recombinant CCR1 and G-alpha-16, 1 hour at room temperature.
T1 construct: host or cells: Non-adherent cells
T1 sequence (P32246 1-355): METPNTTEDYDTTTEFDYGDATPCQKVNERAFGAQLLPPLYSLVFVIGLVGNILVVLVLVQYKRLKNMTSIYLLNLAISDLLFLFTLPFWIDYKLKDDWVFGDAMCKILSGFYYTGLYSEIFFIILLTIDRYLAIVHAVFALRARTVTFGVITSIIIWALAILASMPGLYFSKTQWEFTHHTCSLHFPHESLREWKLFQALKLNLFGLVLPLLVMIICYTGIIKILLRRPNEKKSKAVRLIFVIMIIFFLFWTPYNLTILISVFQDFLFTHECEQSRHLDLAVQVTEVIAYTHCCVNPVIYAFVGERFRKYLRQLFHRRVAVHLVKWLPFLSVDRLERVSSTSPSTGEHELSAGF
Type: cell-based
Method: Compounds are assessed for the ability to block the interaction of CCR1 and MIP-1α in a functional cellular assay measuring calcium flux in CCR1 transfected cells.
Method A: Non-adherent cells purchased from Chemicon Corporation (HTS005C), stably expressing recombinant CCR1 and G-alpha-16 are grown in RPMI 1640 medium (Mediatech 10-080-CM) supplemented with 10% heat-inactivated FBS, 0.4 mg/mL Geneticin and penicillin/streptomycin. On the day of the assay, the cells are transferred to a beaker and dye-loaded in bulk using a Fluo-4 NW Calcium Assay Kit with probenecid (Invitrogen F36205) at 0.8E6 cells/mL for 1 hour at room temperature. After 1 hour, they are seeded in a 384-well tissue culture-treated plate at a density of 20,000 cells/well. Appropriately diluted test compound is added to the well to achieve a top concentration of 3,000 nM (diluted 4-fold with 10 doses total). The final concentration of DMSO is 1%. The buffer is HBSS (Invitrogen 14025) with 20 mM HEPES at pH 7.4. The cells are allowed to incubate 1 hour in the dark at room temperature. The plates are transferred to the FLIPR TETRA where MIP-1 alpha in 1% BSA is added at the EC80 final concentration. Wells+/−MIP-1 alpha containing diluted DMSO instead of compound serve as the controls. Intracellular calcium flux is recorded on the FLIPR TETRA, using excitation at 470/495 nm and emission at 515/575 nm. Data are analyzed using Activity Base software.
`O=C(NCc1cccc(C(F)(F)F)c1)c1cccn2c(-c3ccc(Cl)c(Cl)c3)ncc12` [3-(3,4-Dichlorophenyl)-imidazo[1,5-a]pyridine-8-carboxylic acid 3-trifluoromethyl-benzylamide] gave an IC50 of 810 nM. In the case of `CS(=O)(=O)c1cccc(CNC(=O)c2cccn3c(-c4ccc(F)cc4)ncc23)c1` [3-(4-Fluorophenyl)-imidazo[1,5-a]pyridine-8-carboxylic acid 3-methanesulfonyl-benzylamide], the IC50 is reported as 305 nM. Compound `O=C(NCc1cccc(C(F)(F)F)c1)c1cccn2c(-c3ccc(F)cc3)ncc12` [3-(4-Fluorophenyl)-imidazo[1,5-a]pyridine-8-carboxylic acid 3-trifluoromethyl-benzylamide] has an IC50 of 18 nM. Work on `O=C(NCc1ccnc(Br)c1)c1cccn2c(-c3ccc(F)cc3)ncc12` [3-(4-Fluorophenyl)-imidazo[1,5-a]pyridine-8-carboxylic acid (2-bromopyridin-4-ylmethyl)-amide] yielded an IC50 of 11 nM. `CS(=O)(=O)c1cc(CNC(=O)c2cccn3c(-c4ccc(F)cc4)ncc23)ccn1` [3-(4-Fluorophenyl)-imidazo[1,5-a]pyridine-8-carboxylic acid (2-methanesulfonyl-pyridin-4-ylmethyl)-amide] gave an IC50 of 285 nM. `O=C(NCc1ccc(Br)nc1)c1cccn2c(-c3ccc(F)cc3)ncc12` [3-(4-Fluorophenyl)-imidazo[1,5-a]pyridine-8-carboxylic acid (6-bromopyridin-3-ylmethyl)-amide] showed an IC50 of 428 nM. `CS(=O)(=O)c1ccc(CNC(=O)c2cccn3c(-c4ccc(F)cc4)ncc23)cn1` [3-(4-Fluorophenyl)-imidazo[1,5-a]pyridine-8-carboxylic acid (6-methanesulfonyl-pyridin-3-ylmethyl)-amide] showed an IC50 of 568 nM. `CCCC(NC(=O)c1cccn2c(-c3ccc(F)cc3)ncc12)c1ccc(S(C)(=O)=O)nc1` (centres unmarked) [3-(4-Fluorophenyl)-imidazo[1,5-a]pyridine-8-carboxylic acid [1-(6-methanesulfonyl-pyridin-3-yl)-butyl]-amide] was tested, and the IC50 was 7 nM.
